In patent US10322140B2, “Preparation and use of 7a-heterocycle substituted-6,6-difluoro bicyclic himbacine derivatives as PAR-1 receptor antagonists” (Merck Sharp & Dohme Corp., priority 2013, dated 2019) one finds IC50 data, which are given here for 13 compounds.

Where only a bound is given, the exact number is not on record here.

For series [1], the target named is PAR-1 receptor (Homo sapiens (Human), UniProt P25116). Briefly: PAR-1 FLIPR Assay. It is filed as cell-based. The note with it: HEK 293 cells, calcium signal after PAR-1 selective receptor-activating peptide at EC80. As to the method: This assay measures the potency of the inventive compounds as PAR-1 receptor antagonists.
Frozen HEK 293 Cells were plated in 384-well PDL coated plates at 12000 cells/well in 50 uL of DMEM media containing 10% FBS, pen/strep/L-Glutamine and non-essential amino acids, incubated overnight at 37° C./5% CO2. Media was then removed from the cells, incubated with 33 uL of Calcium-5 dye in assay buffer (Hank's buffer containing 20 mM HEPES, 0.04% Chaps and 2.5 mM Probenecid) for 60 minutes at 37° C. 2 uL of varying concentrations of compound in 40% DMSO in assay buffer (final DMSO concentration is […]) were then added to the cells and incubated at 25° C. for 30 minutes. The plates were added to the FLIPR Tetra®, the device added 5 μL of PAR-1 selective receptor-activating peptide (sequence Ala-parafluoroPhe-Arg-Cha-Cit-Try-NH2, prepared in water) at a concentration equal to the effective concentration that achieved 80% activation of signaling on the day of the experiment. The range of peptide was from 1.5-3 μM. The final volume is 40 uL/well, with 2% DMSO. The FLIPR was read at an excitation wavelength of 480 nm and an emission wavelength of 535 nm, and performed 60 scans over a 1-2 min reading time. The data were analyzed by taking the peak signal over a portion of the range of the 60 scans and dividing this signal by the minimum signal for that same range. The data were expressed as percent inhibition of the maximum divided by the minimum signal achieved at 80% activation produced by the PAR1 activating peptide on the test day. The compounds of Examples 1-13 were tested in the assay described above and the data collected for these compounds is provided.

For series [2], the target named is CYP3A4 (Homo sapiens (Human), UniProt P08684). In words: CYP MUX (3A4) RI. It is filed as in vitro ADME. The note with it: human liver microsomes, substrate testosterone, 37° C. 10 min. The source says: This assay measures inhibition of CYP3A4 by a compound. Cytochromes P450 (CYPs) constitute a superfamily of heme-containing enzymes that recognize and metabolize a large number structurally diverse xenobiotics in the human body. CYP3A4 constitutes the largest portion of CYP enzymes in the liver that accounts for the metabolism of almost 50% of all drugs. This assay is used to evaluate the potential of a compound for developing DDIs. (Clarke, S. E.; Jones B. C. Drug-Drug Interactions, New York: Marcel Dekker; 2002. pp. 53-88).
Compound dilutions and assay-ready plates were prepared on a TTP Labtech mosquito® HTS. Assay conduction was fully automated on a customized Screening Platform from Caliper (now PerkinElmer) containing a Mitsubishi robotic plate handler, Liconic incubators, a Caliper Zephyr® liquid handling workstation equipped with temperature-controlled deck positions, a Biotek MultiFlo™ dispenser and an Agilent PlateLoc heat sealer. Assay plates were Corning Costar® 384 well PP plates. High throughput mass spectrometric readout was performed on a RapidFire® 300 system coupled to an AB Sciex API 4000™ triple quadrupole device. CYP isoform 3A4 was incubated in a separate reaction of 50 μL final volume. 25 μL of HLM (human liver microsomes, BD UltraPool™ 150, 0.25 mg/mL final concentration) and the respective substrate, testosterone (75 μM) for 3A4, in potassium phosphate buffer (100 mM, pH=7.4) were added to 250 nL of stamped compound solution (10 mM in DMSO). The reactions were started upon addition of 25 μL of a co-factor solution containing magnesium chloride (3.3 mM), glucose-6-phosphate (3.3 mM), glucose-6-phosphate dehydrogenase (1.4 units) and NADP (1 mM) in potassium phosphate buffer (100 mM, pH=7.4) and incubated on deck at 37° C. for 10 min. 8 μL of each reaction were transferred to the same readout plated filled with 48 μL of stop solution containing internal standards (concentration in final readout plate), 6-hydroxytestosterone-D7 (0.5 μM), 4′-hydroxydiclofenac-D4 (0.2 and dextrorphan-D3 (0.01 in acetonitrile with 0.5% formic acid. After heat sealing, plates were stored at −20° C. for at least 30 min, centrifuged and subjected directly to RapidFire®/MS analysis.

Sequence of PAR-1 receptor (P25116 22-425): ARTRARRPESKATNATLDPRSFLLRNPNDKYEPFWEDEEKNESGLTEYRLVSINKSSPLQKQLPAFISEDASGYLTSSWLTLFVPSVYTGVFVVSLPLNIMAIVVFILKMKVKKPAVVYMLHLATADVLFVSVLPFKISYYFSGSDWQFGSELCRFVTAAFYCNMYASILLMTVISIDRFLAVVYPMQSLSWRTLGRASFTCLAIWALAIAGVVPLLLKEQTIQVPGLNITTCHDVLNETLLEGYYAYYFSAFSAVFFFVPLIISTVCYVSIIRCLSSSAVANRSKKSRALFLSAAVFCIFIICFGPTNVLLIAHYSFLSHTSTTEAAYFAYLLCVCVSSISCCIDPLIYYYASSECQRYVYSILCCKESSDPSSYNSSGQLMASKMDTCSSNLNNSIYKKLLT
Sequence of CYP3A4 (P08684 whole entry): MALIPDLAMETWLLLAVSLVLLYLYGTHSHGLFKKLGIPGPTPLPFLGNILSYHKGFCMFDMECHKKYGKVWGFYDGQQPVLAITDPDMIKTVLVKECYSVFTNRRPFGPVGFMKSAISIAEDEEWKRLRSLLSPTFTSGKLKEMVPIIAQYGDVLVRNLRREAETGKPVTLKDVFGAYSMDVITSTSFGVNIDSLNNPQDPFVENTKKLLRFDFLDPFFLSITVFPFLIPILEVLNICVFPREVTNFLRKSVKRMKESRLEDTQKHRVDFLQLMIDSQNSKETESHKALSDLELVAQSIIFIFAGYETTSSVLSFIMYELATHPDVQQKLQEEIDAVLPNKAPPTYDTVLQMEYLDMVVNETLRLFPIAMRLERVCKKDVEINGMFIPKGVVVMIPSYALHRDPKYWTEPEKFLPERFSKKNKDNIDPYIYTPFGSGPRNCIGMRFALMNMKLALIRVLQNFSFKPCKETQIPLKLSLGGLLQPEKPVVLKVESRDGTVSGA

Regarding `C[C@H]1OC(=O)[C@]2(c3cc(C(C)(C)C)n(C)n3)CC(F)(F)[C@@H](C)[C@H](/C=C/c3ccc(-c4ccccc4C#N)cn3)[C@H]12` [Example 10, 2-(6-((E)-2-((3R,3aS,4R,5S,7aR)-7a-(5-(tert-butyl)-1-methyl-1H-pyrazol-3-yl)-6,6-difluoro-3,5-dimethyl-1-oxooctahydroisobenzofuran-4-yl)vinyl)pyridin-3-yl)benzonitrile], the IC50 in series [1] is 0.0253 µM; in series [2], at least 50 µM.

Take `C[C@H]1OC(=O)[C@]2(c3cc(C(C)(C)C)[nH]n3)CC(F)(F)[C@@H](C)[C@H](/C=C/c3ccc(-c4ccccc4C#N)cn3)[C@H]12` [Example 9, 2-(6-((E)-2-((3R,3aS,4R,5S,7aR)-7a-(5-(tert-butyl)-1H-pyrazol-3-yl)-6,6-difluoro-3,5-dimethyl-1-oxooctahydroisobenzofuran-4-yl)vinyl)pyridin-3-yl)benzonitrile]: in series [1], the IC50 stood at 0.0145 µM.

Consider `Cc1cccc(-c2ccc(/C=C/[C@@H]3[C@@H]4[C@@H](C)OC(=O)[C@]4(c4nnc(N)o4)CC(F)(F)[C@H]3C)nc2)c1C#N` [Example 3, 2-(6-((E)-2-((3R,3aS,4R,5S,7aR)-7a-(5-amino-1,3,4-oxadiazol-2-yl)-6,6-difluoro-3,5-dimethyl-1-oxooctahydroisobenzofuran-4-yl)vinyl)pyridin-3-yl)-6-methylbenzonitrile], for which the values for the IC50 in series [1] and in series [2] were 0.00122 µM and 10.4 µM, respectively.

For `Cc1cccc(-c2ccc(/C=C/[C@@H]3[C@@H]4[C@@H](C)OC(=O)[C@]4(c4nnc(-c5ccccc5)o4)CC(F)(F)[C@H]3C)nc2)c1C#N` [Example 7], the IC50 in series [1] stood at 0.00501 µM.

`C[C@H]1OC(=O)[C@]2(c3cc[nH]n3)CC(F)(F)[C@@H](C)[C@H](/C=C/c3ccc(-c4cccnc4C#N)cn3)[C@H]12` [Example 13, 6′-((E)-2-((3R,3aS,4R,5S,7aR)-6,6-difluoro-3,5-dimethyl-1-oxo-7a-(1H-pyrazol-3-yl)octahydroisobenzofuran-4-yl)vinyl)-[3,3′-bipyridine]-2-carbonitrile]: the IC50 came out at 0.0062 µM in series [1] and 8.8 µM in series [2].

Turning to `C[C@H]1OC(=O)[C@]2(c3cc[nH]n3)CC(F)(F)[C@@H](C)[C@H](/C=C/c3ccc(-c4ccccc4C#N)cn3)[C@H]12` [Example 12, 2-(6-((E)-2-((3R,3aS,4R,5S,7aR)-6,6-difluoro-3,5-dimethyl-1-oxo-7a-(1H-pyrazol-3-yl)octa hydroisobenzofuran-4-yl)vinyl)pyridin-3-yl)benzonitrile], the IC50 in series [1] came to 0.00099 µM; in series [2], 2.4 µM.

As for `C[C@H]1OC(=O)[C@]2(c3n[nH]c(=O)o3)CC(F)(F)[C@@H](C)[C@H](/C=C/c3ccc(-c4ccccc4C#N)cn3)[C@H]12` [Example 1, 2-(6-((E)-2-((3R,3aS,4R,5S,7aR)-6,6-difluoro-3,5-dimethyl-1-oxo-7a-(5-oxo-4,5-dihydro-1,3,4-oxadiazol-2-yl)octahydroisobenzofuran-4-yl)vinyl)pyridin-3-yl)benzonitrile], the IC50 in series [1] was found to be 0.00422 µM; in series [2], 21.8 µM.

With `Cc1cccc(-c2ccc(/C=C/[C@@H]3[C@@H]4[C@@H](C)OC(=O)[C@]4(c4cc(C)n(C)n4)CC(F)(F)[C@H]3C)nc2)c1C#N` [Example 11], the IC50 was 0.0063 µM in series [1] and 17.6 µM in series [2].

Consider `C[C@H]1OC(=O)[C@]2(c3nnc(N)o3)CC(F)(F)[C@@H](C)[C@H](/C=C/c3ccc(-c4ccccc4C#N)cn3)[C@H]12` [Example 4, 2-(6-((E)-2-((3R,3aS,4R,5S,7aR)-7a-(5-amino-1,3,4-oxadiazol-2-yl)-6,6-difluoro-3,5-dimethyl-1-oxooctahydroisobenzofuran-4-yl)vinyl)pyridin-3-yl)benzonitrile], for which the figures for the IC50 in series [1] and in series [2] were 0.00308 µM and 9.9 µM, respectively.

On to `Cc1cccc(-c2ccc(/C=C/[C@@H]3[C@@H]4[C@@H](C)OC(=O)[C@]4(c4n[nH]c(=O)o4)CC(F)(F)[C@H]3C)nc2)c1C#N` [Example 2, 2-(6-((E)-2-((3R,3aS,4R,5S,7aR)-6,6-difluoro-3,5-dimethyl-1-oxo-7a-(5-oxo-4,5-dihydro-1,3,4-oxadiazol-2-yl)octahydroisobenzofuran-4-yl)vinyl)pyridin-3-yl)-6-methylbenzonitrile], for which the IC50 in series [1] came to 0.00134 µM; in series [2], 22.8 µM.

On to `Cc1nnc([C@@]23CC(F)(F)[C@@H](C)[C@H](/C=C/c4ccc(-c5cccc(C)c5C#N)cn4)[C@@H]2[C@@H](C)OC3=O)o1` [Example 5, 2-(6-((E)-2-((3R,3aS,4R,5S,7aR)-6,6-difluoro-3,5-dimethyl-7a-(5-methyl-1,3,4-oxadiazol-2-yl)-1-oxooctahydroisobenzofuran-4-yl)vinyl)pyridin-3-yl)-6-methylbenzonitrile], for which the results for the IC50 in series [1] and in series [2] were 0.00245 µM and 16.9 µM, respectively.

Turning to `Cc1cccc(-c2ccc(/C=C/[C@@H]3[C@@H]4[C@@H](C)OC(=O)[C@]4(c4nnc(C5CC5)o4)CC(F)(F)[C@H]3C)nc2)c1C#N` [Example 6, 2-(6-((E)-2-((3R,3aS,4R,5S,7aR)-7a-(5-cyclopropyl-1,3,4-oxadiazol-2-yl)-6,6-difluoro-3,5-dimethyl-1-oxooctahydroisobenzofuran-4-yl)vinyl)pyridin-3-yl)-6-methylbenzonitrile], the IC50 in series [1] came to 0.00207 µM.

As to `C[C@H]1OC(=O)[C@]2(c3n[nH]c(=O)o3)CC(F)(F)[C@@H](C)[C@H](/C=C/c3ccc(-c4cccc(F)c4)cn3)[C@H]12` [Example 8, 5-((1R,3aR,6S,7R,7aS)-5,5-difluoro-7-((E)-2-(5-(3-fluorophenyl)pyridin-2-yl)vinyl)-1,6-dimethyl-3-oxooctahydroisobenzofuran-3a-yl)-1,3,4-oxadiazol-2(3H)-one], the 50% inhibitory concentration (IC50) in series [1] was found to be 0.0287 µM.

A word on the IC50: it is the midpoint of a concentration-inhibition curve.
